80 compounds from the METLIN SMRT retention time set (Domingo-Almenara et al. 2019) can be followed below.

The series can be described thus: gradient 5% acetonitrile 3 min, to 50% in 2 min, to 85% in 15 min, held 3 min, 100 µL/min. Particulars: column: Zorbax Extend-C18 2.1 x 50 mm; eluents: water / acetonitrile, 0.1% formic acid. The gist of the method: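 A Zorbax Extend-C18 column (2.1 × 50 mm, 1.8 μm) run at 100 μL/min with water and acetonitrile, both containing 0.1% formic acid, separated mixtures of ~100 pure standards. The HPLC was coupled to a quadrupole time-of-flight mass spectrometer operated in positive and negative ionization mode, with dead and dwell volumes of 40 μL and 900 μL. Each retention time was taken from a computationally picked adduct peak that was then manually inspected.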
Compound `CC(C)CCNC(=O)C1(C)CN(S(=O)(=O)c2ccccc2)CC(=O)N1Cc1ccc(F)cc1` (stereo not given) yielded an RP-LC retention time of 978 s.

As for `CCn1c(C(=O)NCCCN2CCOCC2)c(N2CCCC2=O)c2cc(F)ccc21`, the RP-LC retention time is 624 s.

On to `COC(=O)c1c(NC(=O)CCc2ccc(C)o2)sc(C)c1C`, for which the RP-LC retention time is 1110 s.

Consider `O=C(Nc1cccc(F)c1)N1CCC(N2CCN(Cc3ccccc3)C2=O)CC1`, for which the RP-LC retention time came to 827 s.

With `COCc1cn(C2CN(C(=O)COc3ccccc3)C2)nn1`, the RP-LC retention time came out at 642 s.

As for `O=C(c1nc(-c2ccnc(N3CCCC3)c2)no1)N1CCC2(CC1)OCCO2`, the RP-LC retention time worked out at 617 s.

`Cc1noc(C)c1S(=O)(=O)N1[C@H]2CC[C@@H]1c1cnc(-c3ccc(F)cc3)nc1C2` displayed an RP-LC retention time of 1060 s.

On to `CCC/C(C)=C/c1ccc(CC)cn1`, for which the RP-LC retention time turned out to be 708 s.

As to `O=c1n(Cc2ccc3c(c2)OCO3)nc2c(S(=O)(=O)N3CCCCC3)cccn12`, the RP-LC retention time stood at 828 s.

`CSc1ccccc1CN1CCC(CNC(=O)C(=O)Nc2ccon2)CC1` displayed an RP-LC retention time of 558 s.

`Cc1c(C(=O)N2CCOCC2)cc(-c2ccccc2)n1C` registered an RP-LC retention time of 616 s.

`O=C(NCCc1c[nH]c2ccccc12)c1cc(-c2cccnc2)nc2ccccc12`: the RP-LC retention time was found to be 741 s.

As for `CCCNC(=O)CCc1nc2ccccc2n(CC(=O)Nc2cccc(OC)c2)c1=O`, the RP-LC retention time came to 757 s.

Turning to `CCN1CCN(CCNC(=O)c2c(-c3ccc(Br)s3)noc2C)CC1`, the RP-LC retention time is 618 s.

As for `Cc1ccccc1S(=O)(=O)N1CCC2(CC1)NCCN=C2NCc1ccc(Cl)cc1`, the RP-LC retention time was 741 s.

On to `COc1ccc(N2CCN(S(=O)(=O)N(C)C)CC2)cc1`, for which the RP-LC retention time turned out to be 736 s.

With `COc1ccc(N2CC(c3noc(-c4cccc(N(C)C)c4)n3)CC2=O)cc1` (stereo not given), the RP-LC retention time was 983 s.

The compound `COc1ccc(Cc2nnc3sc(-c4ccc(OC)cc4OC)nn23)cc1` had an RP-LC retention time of 1030 s.

`O=C(c1ccc(Cl)cc1)N1CCC(n2c(-c3ccoc3)nc3cccnc32)C1` (stereo not given) returned an RP-LC retention time of 782 s.

As for `CCN1C(=O)c2c(C(=O)NCc3ccccc3F)ncn2CC1(C)C(=O)NC1CCCC1` (stereo not given), the RP-LC retention time came out at 741 s.

`CN1C(=O)c2cccn2CC1C(=O)NCC1CCCCC1` (stereo not given) had an RP-LC retention time of 727 s.

With `C=CCNC(=O)c1cnn(-c2ccc(-c3nc(C(C)C)no3)cn2)c1C`, the RP-LC retention time stood at 903 s.

As to `Cc1nc(-c2ccc(C(=O)N3CCCC3)cc2)no1`, the RP-LC retention time is 675 s.

Take `CCc1noc(-c2nc(-c3ccc(OC)cc3OC)no2)n1`: the RP-LC retention time was 976 s.

In turn, `CCc1noc(-c2cccnc2N2CCCN(Cc3ccc(Cl)cc3)CC2)n1` showed an RP-LC retention time of 709 s.

Turning to `CCOc1ccc(C2Cn3nnc(-c4nc(-c5cccc(Br)c5)no4)c3CO2)cc1` (stereo not given), the RP-LC retention time stood at 1310 s.

Take `O=C(Nc1ccccn1)C1CCN(C(=O)C2Sc3ccccc3NC2=O)CC1` (stereo not given): the RP-LC retention time is 622 s.

Compound `O=C1CCN(C(=O)C2CCN(C(=O)CN3CCCC3=O)CC2)CCCCCCN1` had an RP-LC retention time of 572 s.

As to `CCCOc1ccc(C2NC(=O)NC(C)=C2C(=O)OC2CCCC2)cc1OC` (stereo not given), the RP-LC retention time stood at 857 s.

The compound `CN(CCc1noc(-c2ccc(Cl)cc2)n1)C(=O)Nc1ccccc1F` had an RP-LC retention time of 952 s.

`O=C(CSc1nccn1-c1cccc(Cl)c1)Nc1ccccc1F` registered an RP-LC retention time of 841 s.

As for `O=C(NCCn1c(CCc2ccccc2)nc2ccccc21)NCc1ccco1`, the RP-LC retention time came to 656 s.

Consider `COc1ccc(N2CCN(S(=O)(=O)c3cc(-c4cc(C(F)(F)F)on4)sc3C)CC2)cc1`, for which the RP-LC retention time was found to be 1270 s.

Compound `Cc1ccc(Cn2c(N3CCC(C(=O)NC4CC4)CC3)nc3ccsc3c2=O)cc1` showed an RP-LC retention time of 783 s.

Compound `CC(=O)Nc1onc(C)c1-c1ccc(C)c(S(=O)(=O)N2CCN(c3ncccn3)CC2)c1` gave an RP-LC retention time of 763 s.

In turn, `Cc1oc2ccn(Cc3ccc(F)cc3)c(=O)c2c1C(=O)NCC1CC1` registered an RP-LC retention time of 988 s.

In turn, `Cc1cc(C)cc(N2CCC(NC(=O)Nc3ccccc3)C2=O)c1` (stereo not given) came in with an RP-LC retention time of 862 s.

As to `COc1ccc(-c2cc(C(=O)N3CCN(C)CC3)nn2C2CCS(=O)(=O)C2)cc1` (stereo not given), the RP-LC retention time stood at 613 s.

Consider `Cn1c(=O)cnc2ccc(N3CCOCC3)nc21`, for which the RP-LC retention time was determined as 662 s.

On to `Cn1cnc2cc(CNC(=O)c3ccc(F)cc3)ccc21`, for which the RP-LC retention time amounted to 577 s.

Turning to `CC(C)C1c2nccn2CCCN1C(=O)c1cc(C2CC2)[nH]n1` (stereo not given), the RP-LC retention time turned out to be 592 s.

Regarding `COc1ccc(OCC(=O)N2CCN(Cc3noc4ccccc34)CC2)cc1`, the RP-LC retention time was 711 s.

Turning to `COc1ccc(NC(=O)Cn2c(=O)nc(N3CCC(C)CC3)c3ccccc32)cc1OC`, the RP-LC retention time turned out to be 768 s.

In the case of `O=C1NC2(CCN(C(=O)Nc3ccc4c(c3)OCO4)CC2)N=C1c1ccccc1`, the RP-LC retention time came to 746 s.

`O=C1CC(c2noc(-c3ccc(OC(F)(F)F)cc3)n2)CN1c1ccc(F)cc1` (stereo not given) came in with an RP-LC retention time of 1040 s.

Take `Cc1ccc(NC(=O)CN2C(=O)CCCc3cc(S(=O)(=O)N4CCCC4)ccc32)cc1C`: the RP-LC retention time came to 824 s.

On to `O=c1[nH]cc(I)cc1I`, for which the RP-LC retention time was 723 s.

With `Cc1cc2c(c(=O)n(-c3ccc(F)cc3)c(=O)n2CC(=O)Nc2ccc(Cl)cc2F)n1C`, the RP-LC retention time stood at 894 s.

For `Cc1ccc(N(C)C(=O)C2CCCN(S(=O)(=O)c3cc(-c4noc(C)n4)cs3)C2)cc1` (stereo not given), the RP-LC retention time came to 992 s.

For `O=C1CCN(CC2CCCCC2)CCCC(c2nc(-c3cnccn3)no2)CCN1` (stereo not given), the RP-LC retention time was 619 s.

Compound `Cc1nc2ccccc2c(=O)n1-c1ccc(NC(=O)c2cnccn2)cc1` yielded an RP-LC retention time of 682 s.

`COc1ccc(-c2cc(N3CCC(NC(=O)c4ccc(Br)cc4)C3)n[nH]2)cc1` (stereo not given): the RP-LC retention time is 966 s.

For `O=C(c1ccco1)N1CCCC1c1nc(-c2cccc(C(F)(F)F)c2)no1` (stereo not given), the RP-LC retention time is 1020 s.

`Cn1ccc2cc(S(=O)(=O)N3CCC(C(=O)NC4CCN(Cc5ccccc5)CC4)CC3)ccc21` came in with an RP-LC retention time of 666 s.

In turn, `CCCCNC(=O)Cn1c(CC)nc2c(c1=O)CN(Cc1ccccc1)CC2` showed an RP-LC retention time of 605 s.

On to `CC(C)Cc1ccc(S(=O)(=O)N2CCC(C(=O)NCc3csc(-c4ccccc4)n3)CC2)cc1`, for which the RP-LC retention time came to 1140 s.

Consider `Cc1cccc(NC(=O)c2cn(CC(=O)NC3CCCC3)c3nc(C)ccc3c2=O)c1`, for which the RP-LC retention time was determined as 996 s.

With `O=C(Nc1nc2c(s1)CCCC2C(=O)N1CCOCC1)c1ccc(Cl)cc1` (stereo not given), the RP-LC retention time is 759 s.

`COC(=O)c1cccc(NC(=O)CSc2nccc(N3CCN(c4ccc(OC)cc4)CC3)n2)c1`: the RP-LC retention time was 743 s.

For the compound `O=C(Cn1cnc2nc(N3CCC(C(=O)NC4CC4)CC3)sc2c1=O)NCc1ccc(F)cc1`, the RP-LC retention time was found to be 655 s.

As to `Brc1cccc(-c2nnc(Cc3nc(-c4ccncc4)no3)o2)c1`, the RP-LC retention time came to 854 s.

For the compound `CCn1c(C(=O)NCCCc2ccccc2)cc2c(-c3cccs3)nn(-c3ccccc3)c21`, the RP-LC retention time stood at 1280 s.

`CCOc1ccc(Cl)cc1S(=O)(=O)N1CCC(C(=O)NC2CCCC2)CC1` had an RP-LC retention time of 916 s.

Compound `Cc1nc(C)c(C(=O)N2CCC(n3c(C)cnc3C3CCC3)CC2)s1` returned an RP-LC retention time of 580 s.

The compound `COc1ccccc1Cc1nc(-c2cn(-c3cccc(F)c3)nn2)no1` yielded an RP-LC retention time of 1040 s.

Regarding `CN(CC1CCOC1)C(=O)c1ccc(F)cc1Cl` (stereo not given), the RP-LC retention time was determined as 704 s.

The compound `NCCNS(=O)(=O)c1cccc2c(Cl)cccc12` yielded an RP-LC retention time of 701 s.

`Cc1cc(C)nc(N2CCN(c3nc(C)cc(C)c3C#N)CC2)n1`: the RP-LC retention time is 990 s.

With `O=C(Nc1ccc(F)cc1F)N1CCC(N2CCN(Cc3ccc(F)cc3)C2=O)CC1`, the RP-LC retention time worked out at 802 s.

`CCC(=O)N1c2ccccc2NC2=C(C(=O)CC(C)(C)C2)C1c1ccc(C(=O)OC)cc1` (stereo not given) showed an RP-LC retention time of 749 s.

Consider `Cc1n[nH]c(C)c1CNC(=O)C1CCN(C(=O)c2ncn3c2COC(c2ccc(F)cc2)C3)CC1` (stereo not given), for which the RP-LC retention time was determined as 627 s.

In turn, `COc1cccc(-c2cc(C(=O)NCCC3=CCCCC3)n(C)n2)c1` gave an RP-LC retention time of 1060 s.

`CCCNC(=O)C1CCN(c2ccc(SCC(=O)NCc3ccc4c(c3)OCO4)nn2)CC1` had an RP-LC retention time of 606 s.

With `CC1CCN(c2nn(CC(=O)Nc3cccc(Cl)c3)c(=O)c3ccccc23)CC1`, the RP-LC retention time was 1210 s.

`COc1ccccc1-c1noc(C2CCCN2C(=O)Nc2ccccc2Cl)n1` (stereo not given) had an RP-LC retention time of 947 s.

Consider `CS(=O)(=O)NCC1CCN(C(=O)c2ccccc2F)CC1`, for which the RP-LC retention time is 608 s.

`Cn1ncc2c3ccccc3n(CCCC(=O)NCCc3ccco3)c2c1=O`: the RP-LC retention time was determined as 775 s.

For `COc1ccccc1-c1nc2nccc(-c3ccccc3)n2n1`, the RP-LC retention time amounted to 862 s.

`CCn1c(N2CCCC(C(=O)NCc3ccc(F)cc3)C2)cc(=O)n(C)c1=O` (stereo not given): the RP-LC retention time came to 776 s.

`CCCCN(C(=O)c1ccc(C)cc1)C1(C(=O)NCc2ccccc2)CCN(C(C)=O)CC1` yielded an RP-LC retention time of 901 s.
